Data as given in ChEMBL document CHEMBL4825757, “Optimization of 4,6-Disubstituted Pyrido[3,2-d]pyrimidines as Dual MNK/PIM Inhibitors to Inhibit Leukemia Cell Growth” (J Med Chem, 2021).
Calls of active or inactive are those of the source. The rule behind the calls is not given here.

What was measured:
MOLM-13 [1] = test: Induction of cell cycle arrest in human MOLM-13 cells assessed as G1 phase at 1 uM incubated for 12 hr by propidium iodide based flow cytometry analysis (Rvb= 51.29%); type: functional
K562 [2] = test: Downregulation of cyclin-D1 levels in human K562 cells at 1 to 2 uM incubated for 24 hrs by western blot analysis; type: functional, cell-based; settings: dose 1-2 µM
MOLM-13 [3] = test: Induction of apoptosis in human MOLM-13 cells assessed as necrotic cells at 2 uM incubated for 12 hrs by annexin-V and propidium iodide staining based flow cytometry analysis (reference value: 0.06%); type: functional
MOLM-13 [4] = test: Induction of apoptosis in human MOLM-13 cells assessed as late apoptotic cells at 2 uM incubated for 12 hrs by annexin-V and propidium iodide staining based flow cytometry analysis (reference value: 3.03%); type: functional
HL-60 = test: Antiproliferative activity against human HL-60 cells assessed as reduction of cell viability incubated for 72 hrs by trypan blue staining based cell counting analysis; type: functional
MOLM-13 [5] = test: Induction of apoptosis in human MOLM-13 cells assessed as necrotic cells at 1 uM incubated for 12 hrs by annexin-V and propidium iodide staining based flow cytometry analysis (reference value: 0.06%); type: functional
K562 [6] = test: Downregulation of c-myc levels in human K562 cells at 1 to 2 uM incubated for 24 hrs by western blot analysis; type: functional, cell-based; settings: dose 1-2 µM
MOLM-13 [7] = test: Induction of apoptosis in human MOLM-13 cells assessed as early apoptotic cells at 2 uM incubated for 12 hrs by annexin-V and propidium iodide staining based flow cytometry analysis (reference value: 5.40%); type: functional
[8] = molecular target: T1, Serine/threonine-protein kinase PIM (Homo sapiens) (UniProt P11309+Q9P1W9+Q86V86); test: Inhibition of PIM in human MOLM-13 cells assessed as reduction in phosphorylated 4EBP1 at 1 to 2 uM incubated for 12 hrs by western blot analysis; type: cell-based; settings: dose 1-2 µM
T1 sequence (P11309 whole entry, looked up): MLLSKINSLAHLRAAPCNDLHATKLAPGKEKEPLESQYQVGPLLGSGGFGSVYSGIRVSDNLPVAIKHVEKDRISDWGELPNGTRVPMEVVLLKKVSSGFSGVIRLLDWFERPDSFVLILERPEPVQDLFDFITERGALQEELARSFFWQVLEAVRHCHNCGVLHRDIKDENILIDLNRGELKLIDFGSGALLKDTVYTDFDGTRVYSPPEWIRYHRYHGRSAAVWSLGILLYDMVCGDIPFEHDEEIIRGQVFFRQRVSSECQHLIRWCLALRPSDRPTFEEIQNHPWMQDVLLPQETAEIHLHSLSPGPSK
T1 sequence (Q9P1W9 whole entry, looked up): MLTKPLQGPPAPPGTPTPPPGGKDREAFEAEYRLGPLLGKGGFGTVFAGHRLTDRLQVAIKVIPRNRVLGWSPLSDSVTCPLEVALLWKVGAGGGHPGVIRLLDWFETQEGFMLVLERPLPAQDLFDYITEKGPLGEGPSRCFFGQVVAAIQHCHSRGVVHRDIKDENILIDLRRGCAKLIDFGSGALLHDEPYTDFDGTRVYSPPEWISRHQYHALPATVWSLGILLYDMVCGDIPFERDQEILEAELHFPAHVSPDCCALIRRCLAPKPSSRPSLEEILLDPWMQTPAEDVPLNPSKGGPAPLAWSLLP

MOLM-13 [9] = test: Downregulation of c-myc levels in human MOLM-13 cells at 1 to 2 uM incubated for 12 hrs by western blot analysis; type: functional, cell-based; settings: dose 1-2 µM
MOLM-13 [10] = test: Induction of apoptosis in human MOLM-13 cells assessed as early apoptotic cells at 1 uM incubated for 12 hrs by annexin-V and propidium iodide staining based flow cytometry analysis (reference value: 5.40%); type: functional
MOLM-13 [11] = test: Induction of apoptosis in human MOLM-13 cells assessed as live cells at 2 uM incubated for 12 hrs by annexin-V and propidium iodide staining based flow cytometry analysis (reference value: 91.49%); type: functional
MOLM-13 [12] = test: Downregulation of mcl-1 levels in human MOLM-13 cells at 1 to 2 uM incubated for 12 hrs by western blot analysis; type: functional, cell-based; settings: dose 1-2 µM
[13] = molecular target: MAP kinase-interacting serine/threonine-protein kinase 1/2 (Homo sapiens) (UniProt Q9HBH9+Q9BUB5); test: Inhibition of MNK1/MNK2 in human MOLM-13 cells assessed as reduction in eIF4E phosphorylation at 1 to 2 uM incubated for 12 hrs by western blot analysis; type: cell-based; settings: dose 1-2 µM
MOLM-13 [14] = test: Induction of cell cycle arrest in human MOLM-13 cells assessed as G1 phase at 2 uM incubated for 12 hr by propidium iodide based flow cytometry analysis (Rvb= 51.29%); type: functional
[15] = molecular target: T1, Serine/threonine-protein kinase PIM (Homo sapiens); test: Inhibition of PIM in human MOLM-13 cells assessed as reduction of BAD phosphorylation at 1 to 2 uM incubated for 12 hrs by western blot analysis; type: cell-based; settings: dose 1-2 µM
MOLM-13 [16] = test: Induction of cell cycle arrest in human MOLM-13 cells assessed as sub-G1 phase at 2 uM incubated for 12 hr by propidium iodide based flow cytometry analysis (Rvb= 4.78%); type: functional
MOLM-13 [17] = test: Induction of cell cycle arrest in human MOLM-13 cells assessed as sub-G1 phase at 1 uM incubated for 12 hr by propidium iodide based flow cytometry analysis (Rvb= 4.78%); type: functional
K562 [18] = test: Antiproliferative activity against human K562 cells assessed as reduction of cell viability incubated for 72 hrs by trypan blue staining based cell counting analysis; type: functional
K562 [19] = test: Downregulation of mcl-1 levels in human K562 cells at 1 to 2 uM incubated for 24 hrs by western blot analysis; type: functional, cell-based; settings: dose 1-2 µM
MOLM-13 [20] = test: Downregulation of cyclin-D1 levels in human MOLM-13 cells at 1 to 2 uM incubated for 12 hrs by western blot analysis; type: functional, cell-based; settings: dose 1-2 µM
MOLM-13 [21] = test: Induction of apoptosis in human MOLM-13 cells assessed as live cells at 1 uM incubated for 12 hrs by annexin-V and propidium iodide staining based flow cytometry analysis (reference value: 91.49%); type: functional
MOLM-13 [22] = test: Induction of apoptosis in human MOLM-13 cells assessed as late apoptotic cells at 1 uM incubated for 12 hrs by annexin-V and propidium iodide staining based flow cytometry analysis (reference value: 3.03%); type: functional
MOLM-13 [23] = test: Antiproliferative activity against human MOLM13 cells assessed as reduction of cell viability incubated for 72 hrs by trypan blue staining based cell counting analysis; type: functional
[24] = molecular target: T2, MAP kinase-interacting serine/threonine-protein kinase 1 (Homo sapiens, UniProt Q9BUB5); test: Inhibition of MKN1 (unknown origin) in presence of ATP by HTRF assay
Target sequence in this assay (Q9BUB5 whole entry): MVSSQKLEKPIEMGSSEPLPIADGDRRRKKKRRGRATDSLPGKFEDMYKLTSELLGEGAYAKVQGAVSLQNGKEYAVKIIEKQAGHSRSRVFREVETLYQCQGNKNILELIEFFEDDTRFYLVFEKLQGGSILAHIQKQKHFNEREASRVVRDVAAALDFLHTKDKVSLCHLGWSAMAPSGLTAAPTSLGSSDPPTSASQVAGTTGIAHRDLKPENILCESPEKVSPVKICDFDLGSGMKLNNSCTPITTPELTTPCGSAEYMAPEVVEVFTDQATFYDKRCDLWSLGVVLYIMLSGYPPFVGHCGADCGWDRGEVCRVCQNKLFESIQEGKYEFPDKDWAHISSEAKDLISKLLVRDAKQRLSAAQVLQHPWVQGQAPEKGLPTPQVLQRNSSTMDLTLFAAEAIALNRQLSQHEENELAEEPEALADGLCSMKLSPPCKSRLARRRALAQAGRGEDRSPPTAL

[25] = molecular target: MAP kinase-interacting serine/threonine-protein kinase 2 (Homo sapiens, UniProt Q9HBH9); test: Inhibition of MKN2 (unknown origin) in presence of ATP by HTRF assay
MAP kinase-interacting serine/threonine-protein kinase 2, sequence (Q9HBH9 whole entry): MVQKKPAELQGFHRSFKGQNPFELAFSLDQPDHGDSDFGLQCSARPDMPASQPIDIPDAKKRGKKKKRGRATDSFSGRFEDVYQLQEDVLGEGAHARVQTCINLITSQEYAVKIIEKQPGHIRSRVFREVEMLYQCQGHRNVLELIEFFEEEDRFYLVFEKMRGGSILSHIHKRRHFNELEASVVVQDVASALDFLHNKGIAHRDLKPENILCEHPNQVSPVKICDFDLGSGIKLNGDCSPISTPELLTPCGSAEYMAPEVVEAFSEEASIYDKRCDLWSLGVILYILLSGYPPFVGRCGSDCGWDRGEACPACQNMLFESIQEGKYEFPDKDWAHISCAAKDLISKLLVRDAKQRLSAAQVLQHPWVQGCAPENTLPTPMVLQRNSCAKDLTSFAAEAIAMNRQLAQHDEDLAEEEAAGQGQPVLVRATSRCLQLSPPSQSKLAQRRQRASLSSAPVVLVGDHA

[26] = molecular target: T2, MAP kinase-interacting serine/threonine-protein kinase 1; test: Inhibition of MKN1 (unknown origin) at 1 uM in presence of ATP by HTRF assay
Target sequence in this assay (Q9BUB5 whole entry, looked up): as the sequence (Q9BUB5 whole entry) above

[27] = Intrinsic clearance in human liver microsomes preincubated for 10 mins followed by NADPH addition and further incubated upto 60 mins by LC-MS/MS analysis; type: ADME, Microsome; settings: time <=70 min, read-out: CLH
[28] = Intrinsic clearance in rat liver microsomes preincubated for 10 mins followed by NADPH addition and further incubated upto 60 mins by LC-MS/MS analysis; type: ADME, Microsome; settings: time <=70 min, read-out: CLH
[29] = Metabolic stability in rat liver microsomes assessed as half life preincubated for 10 mins followed by NADPH addition and further incubated upto 60 mins by LC-MS/MS analysis; type: ADME, Microsome; settings: time <=70 min

CN1CCC(CNc2ccc3ncc(-c4cccc(OC(F)(F)F)c4)n3n2)CC1 [SGI-1776]
Activity (MOLM-13 [1]): 67.94% | Activity (K562 [2]): inactive | Activity (MOLM-13 [3]): 0.13% | Activity (MOLM-13 [4]): 4.23% | GI50 (HL-60): 1280 nM | Activity (MOLM-13 [5]): 0.22% | Activity (K562 [6]): inactive | Activity (MOLM-13 [7]): 31.08% | inhibition [8]: Active | Activity (MOLM-13 [9]): Active | Activity (MOLM-13 [10]): 24.57% | Activity (MOLM-13 [11]): 64.56% | Activity (MOLM-13 [12]): Active | inhibition [13]: inactive | Activity (MOLM-13 [14]): 58.06% | inhibition [15]: Active | Activity (MOLM-13 [16]): 26.08% | Activity (MOLM-13 [17]): 15.68% | GI50 (K562 [18]): 2190 nM | Activity (K562 [19]): inactive | Activity (MOLM-13 [20]): Active | Activity (MOLM-13 [21]): 71.17% | Activity (MOLM-13 [22]): 4.05% | GI50 (MOLM-13 [23]): 130 nM

CCCNC(=O)c1cccc(C#Cc2ccccc2Nc2ncnc3ccc(Cl)nc23)c1
IC50 [24]: > 10000 nM | IC50 [25]: 3900 nM

Cc1ccc(Nc2ncnc3ccc(-c4ccc(C(=O)N5CCNCC5)cc4)nc23)cc1
inhibition [26]: 12% | IC50 [25]: 62 nM | GI50 (MOLM-13 [23]): 3540 nM

O=C(c1ccc(-c2ccc3ncnc(Nc4ccc(C(F)(F)F)cc4)c3n2)cc1)N1CCNCC1
inhibition [26]: 0% | IC50 [25]: 41 nM | GI50 (MOLM-13 [23]): 2670 nM

O=C(c1ccc(-c2ccc3ncnc(Nc4ccccc4)c3n2)cc1)N1CCNCC1
inhibition [26]: 71% | IC50 [25]: 36 nM | GI50 (MOLM-13 [23]): 3190 nM

COc1cc(Nc2ncnc3ccc(-c4ccc(C(=O)N5CCNCC5)cc4)nc23)ccc1F
inhibition [26]: 90% | IC50 [24]: 1 nM | IC50 [25]: 25 nM | GI50 (MOLM-13 [23]): 2850 nM

O=C(c1ccc(-c2ccc3ncnc(Nc4ccc(F)cc4)c3n2)cc1)N1CCNCC1
inhibition [26]: 83% | IC50 [24]: 1.1 nM | IC50 [25]: 26 nM | GI50 (MOLM-13 [23]): 7930 nM

CNC(=O)c1cccc(C#Cc2ccccc2Nc2ncnc3ccc(Cl)nc23)c1
IC50 [24]: > 10000 nM | IC50 [25]: 4900 nM

O=C(c1cccc(-c2ccc3ncnc(Nc4ccccc4)c3n2)c1)N1CCNCC1
inhibition [26]: 57% | IC50 [25]: 624 nM | GI50 (MOLM-13 [23]): 3920 nM

COC(=O)c1cccc(C#Cc2ccccc2Nc2ncnc3ccc(Cl)nc23)c1
IC50 [24]: > 10000 nM | IC50 [25]: 4200 nM

O=C(c1ccc(-c2ccc3ncnc(Nc4ccc(O)cc4)c3n2)cc1)N1CCNCC1
inhibition [26]: 86% | IC50 [24]: 8.5 nM | IC50 [25]: 41 nM | GI50 (MOLM-13 [23]): 11200 nM

O=C(c1cccc(C#Cc2ccccc2Nc2ncnc3ccc(Cl)nc23)c1)N1CCOCC1
IC50 [24]: > 10000 nM | IC50 [25]: > 10000 nM

CNC(=O)c1oc2ccc(Nc3ncnc4ccc(Cl)nc34)cc2c1C
IC50 [24]: > 10000 nM | IC50 [25]: 2500 nM

O=C(c1cccc(C#Cc2ccccc2Nc2ncnc3ccc(Cl)nc23)c1)N1CCNCC1
IC50 [24]: > 10000 nM | IC50 [25]: 5000 nM

Cc1c(C(=O)N2CCNCC2)oc2ccc(Nc3ncnc4ccc(Cl)nc34)cc12
IC50 [24]: > 10000 nM | IC50 [25]: 1900 nM

Cc1c(C(=O)N2CCOCC2)oc2ccc(Nc3ncnc4ccc(Cl)nc34)cc12
IC50 [24]: > 10000 nM | IC50 [25]: 1800 nM

CNC(=O)c1ccc(-c2ccc3ncnc(Nc4ccccc4)c3n2)cc1
inhibition [26]: 37% | IC50 [25]: 58 nM | GI50 (MOLM-13 [23]): 1830 nM

N#Cc1ccc(Nc2ncnc3ccc(-c4ccc(C(=O)N5CCNCC5)cc4)nc23)cc1
inhibition [26]: 88% | IC50 [24]: 0.15 nM | IC50 [25]: 43 nM

Cc1c(C(=O)N(C)C)oc2ccc(Nc3ncnc4ccc(Cl)nc34)cc12
IC50 [24]: > 10000 nM | IC50 [25]: 2200 nM

CCCNC(=O)c1oc2ccc(Nc3ncnc4ccc(Cl)nc34)cc2c1C
IC50 [24]: > 10000 nM | IC50 [25]: 1900 nM

O=C(c1cccc(-c2ccc3ncnc(Nc4ccc(F)cc4)c3n2)c1)N1CCNCC1
inhibition [26]: 70% | IC50 [25]: 52 nM | GI50 (MOLM-13 [23]): 6050 nM

COc1cc(F)ccc1Nc1ncnc2ccc(-c3ccc(C(=O)N4CCNCC4)cc3)nc12
inhibition [26]: 89% | IC50 [24]: 1.2 nM | IC50 [25]: 29 nM | GI50 (MOLM-13 [23]): 1880 nM

COc1ccc(Nc2ncnc3ccc(-c4ccc(C(=O)N5CCNCC5)cc4)nc23)cc1
inhibition [26]: 7% | IC50 [25]: 111 nM | GI50 (MOLM-13 [23]): 10100 nM

Cc1ncc2n1-c1ccc(Cl)cc1C(c1ccccc1F)=NC2 [MIDAZOLAM]
CLint scaled [27]: 219 mL/min/kg | CLint scaled [28]: 939 mL/min/kg | half-life [29]: 2.64 min

O=C(c1ccc(-c2ccc3ncnc(Nc4cccc(F)c4)c3n2)cc1)N1CCNCC1
inhibition [26]: 70% | IC50 [25]: 33 nM | GI50 (MOLM-13 [23]): 3800 nM

COC(=O)c1oc2ccc(Nc3ncnc4ccc(Cl)nc34)cc2c1C
IC50 [24]: > 10000 nM | IC50 [25]: 4800 nM

c1ccc(Nc2ncnc3ccc(-c4ccccc4)nc23)cc1
inhibition [26]: 0% | IC50 [25]: 612 nM

O=C(c1ccc(-c2ccc3ncnc(Nc4ccccc4F)c3n2)cc1)N1CCNCC1
inhibition [26]: 34% | IC50 [25]: 10 nM | GI50 (MOLM-13 [23]): 3080 nM

CN(C)C(=O)c1cccc(C#Cc2ccccc2Nc2ncnc3ccc(Cl)nc23)c1
IC50 [24]: > 10000 nM | IC50 [25]: > 10000 nM
